Experimental data published in patent US5420289A, “Substituted indole-, indene-, pyranoindole- and tetrahydrocarbazole-alkanoic acid derivatives as inhibitors of PLA2 and lipoxygenase” (American Home Products Corporation, priority 1993, dated 1995).
Structures can show the parent of a compound that is named as a salt. Blank lines part the entries; values can stand above or below the molecule they belong to.

Tests used:
[1] = molecular target: T1, LTD4 (isolated guinea pig trachea) (Cavia porcellus, UniProt Q2NNR5); assay: in vitro isolated guinea pig trachea assay, LTD4 antagonism (Example 77); parameters: from tissue; host or cells: isolated trachea rings of male Hartley guinea pigs; species or system guinea pig (male Hartley); settings: Table VII; 1 × 10^-5 M
T1 sequence (Q2NNR5 1-340): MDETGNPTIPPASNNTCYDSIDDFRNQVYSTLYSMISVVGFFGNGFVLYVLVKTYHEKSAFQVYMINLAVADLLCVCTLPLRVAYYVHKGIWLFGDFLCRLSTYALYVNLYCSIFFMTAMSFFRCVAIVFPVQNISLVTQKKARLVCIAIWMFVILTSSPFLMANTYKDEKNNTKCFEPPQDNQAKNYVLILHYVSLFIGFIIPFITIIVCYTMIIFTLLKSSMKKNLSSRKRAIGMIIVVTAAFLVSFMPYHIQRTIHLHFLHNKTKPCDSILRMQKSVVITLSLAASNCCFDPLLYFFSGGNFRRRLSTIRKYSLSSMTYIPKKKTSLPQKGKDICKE
Protocol: The LTD4 antagonist activity of the compounds of the invention is assessed in the in vitro isolated guinea pig trachea assay. This assay is carried out as follows: Male Hartley guinea pigs (350-400 g) are euthanized by a blow to the head, the neck is opened and the trachea removed. The trachea is maintained in aerated physiological salt solution, cleared of connective tissue and fat and cut into tings approximately 2 nxn in width (usually containing two cartilaginous segments per ting). Two pieces of silk suture are then passed through the lumen of the tracheal ring and are tied around the cartilage, one on each side of the trachealis muscle. The tracheal ting is suspended between a glass hook and a force […] transducer in a 10 mL organ bath for measurement of isometric tension. […] The tracheal […] maintained at 2 g resting tension and equilibrated for 45 minutes (with frequent washing and readjustment of resting tension). The tracheal rings are first contracted by the addition of carbachol (3×10^-6 M), to determine tissue responsiveness and establish a reference contraction. On attainment of a stable level of contraction (approximately 30 minutes), the tissues are washed several times until baseline tension has been restored and then re-equilibrated for 30 minutes. The tissues are then incubated for 45 minutes with a test antagonist (either 1×10^-6 M or 1×10^-5 M) or […] of an appropriate solvent control (control, non-treated). One tissue in each group serves as the control. Twenty minutes prior to the construction of the LTD4 cumulative concentration-response curve, L-[…]×10^-2 M final bath concentration) is added to inhibit bioconversion of LTD4 to LTE4. Only one LTD4 concentration-response curve is constructed in each tissue. All responses to LTD4 in an individual tissue are measured as a percentage of the reference contraction of that tissue to carbachol. LTD4 antagonist activity is determined by comparison of the concentration response curves of LTD4 in the presence and absence of antagonist. Assessment of the relative rightward shift of the antagonist treated curve relative to the solvent (control) treated tissue is calculated as a concentration ratio (Eq. A) and used in subsequent calculations to derive an antagonist pKB value (Eqs B and C). […] If a compound is found to be active and/or depress the maximal response to LTD4, then a range of concentrations of the test compound should be used generating multiple concentration ratios which would then be used to perform a Schild analysis, and determination of a pA2 value where appropriate.

[2] = system: cyclooxygenase (PGE2 synthesis) in rat polymorphonuclear leukocytes (PMN); assay: inhibition of PGE2 synthesis (cyclooxygenase) by rat glycogen-elicited PMN (Example 73); type: cell-based, rat (female Wistar); settings: Leukocyte, * (negative) denotes a potentiation; for inhibition at 500 µM: at 0.5 mM; for inhibition at 10000 µM: at 10 mM, read-out: % Inhibition (PGE2 synthesis)
How it was run: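 Glycogen-elicited peritoneal PMNs from female Wistar rats, 2.0×10^7 cells/mL in HBSS with Ca/Mg and 10 mM L-cysteine, preincubated with drug 10 min at 37° C. Stimulated 10 min with A23187 plus [3H]-AA and unlabeled AA (stocks 1 mM); supernatant [3H]-PGE2 measured by reverse-phase HPLC co-chromatographed with reference standard.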

[3] = molecular target: T2, human synovial fluid PLA2 (Homo sapiens, UniProt P14555); assay: in vitro isolated phospholipase A2 assay, human synovial fluid PLA2 (Example 74); type: biochemical; parameters: inhibition / % Inhibition, HSF (human synovial fluid): dose or concentration left out as unconfirmed; settings: for IC50: Table III, read-out: IC50 HSF (human synovial fluid); for inhibition: read-out: % Inhibition, HSF (human synovial fluid)
T2 sequence (P14555 21-144): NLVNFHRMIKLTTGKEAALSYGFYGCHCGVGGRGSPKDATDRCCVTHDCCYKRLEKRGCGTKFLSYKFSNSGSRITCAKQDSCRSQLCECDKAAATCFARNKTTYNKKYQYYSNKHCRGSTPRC
How it was run: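 Human synovial fluid PLA2 (purified) acts on ³H-arachidonate-labelled E. coli substrate, 10 minutes at 37° C with shaking; stopped with tetrahydrofuran. Released arachidonic acid is isolated on NH2 columns, eluted with tetrahydrofuran/2% acetic acid and quantitated by β-counting against a total-counts sample.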

[4] = system: paw edema induced by PLA2 from the diamond back cotton mouth snake (A. piscivorus piscivorus); assay: in vivo PLA2 murine paw edema assay (Example 75); parameters: species or system mouse (male CD-1)
human platelet PLA2 = molecular target: T3, human platelet PLA2 (Homo sapiens, UniProt P14555); assay: in vitro isolated phospholipase A2 assay, human platelet PLA2 (Example 74); type: biochemical; parameters: dose or concentration left out as unconfirmed; settings: read-out: % Inhibition, HP (human platelet)
T3 construct: Semi-purified human platelet acid extract PLA2; from tissue; host or cells: human platelets (semi-purified acid extract)
T3 sequence (P14555 21-144): T2 sequence (P14555 21-144)
Protocol: The compounds of the invention are tested in an in vitro isolated phospholipase A2 assay to determine the ability of the test compounds to inhibit the release of arachidonic acid from an arachidonic acid-containing substrate by the action of phospholipase A2 enzyme from human and non-human sources.
This assay is carried out as follows:
Into a 15 mL polypropylene tube are added the following:
^6 Two human PLA2 enzymes are used:
a) Semi-purified human platelet acid extract PLA2 (in 10 mM
sodium acetate buffer, pH 4.5). Remove protein precipitate by
centrifugation at about 2200 rpm for 10 minutes.
Incubate the 100mL reaction mixture for 10 minutes at 37° C. in a shaking water bath. The reaction is terminated by the addition of 2 mL tetrahydrofuran, followed by vortexlag. NH2 columns (100 mg/mL--Analytichem International) are conditioned with 0.5 mL tetrahydrofuran followed by 0.5 mL tetrahydrofuran/water (2 mL:0.1 mL, v/v).
The sample is loaded onto the columns and slowly drawn through them. The hydrolyzed arachidonic acid retained in the columns is eluted therefrom with 1 mL tetrahydrofuran/glacial acetic acid (2%). The arachidonic acid is transferred to scintillation vials and quantitated by b-counting analysis. A "total counts" sample is prepared by pipetting […] ^3 H-arachidonate E. coli directly into a scintillation vial to which is added 1 mL tetrahydrofuran. 10 mL aquasol (scintillation cocktail) is added to all samples. [formula]

[5] = system: synthesis of LTB4 by rat glycogen-elicited polymorphonuclear leukocytes (PMN); assay: inhibition of LTB4 synthesis by rat glycogen-elicited PMN (Example 72); type: cell-based, rat (female Wistar); settings: Leukocyte; for inhibition at 500 µM: at 0.5 mM; for inhibition at 10000 µM: at 10 mM, negative number denotes potentiation
How it was run: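 Peritoneal PMNs from female Wistar rats 18-24 h after i.p. glycogen, 2.0×10^7 cells/mL in HBSS with Ca/Mg and 10 mM L-cysteine; compound preincubated 10 min at 37° C, then A23187 […] added for 10 min. Supernatant [3H]-LTB4 quantified by radio-HPLC versus drug-free stimulated cells; percent inhibition or IC50.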

[6] = system: 5-lipoxygenase in human whole blood; assay: inhibition of 5-lipoxygenase in human whole blood (Example 79); type: cell-based; settings: for % Inhibition of LTB4: 25 μM
How it was run: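 Donor whole blood pre-incubated 10 min at 37° C with compound (0.1% DMSO final), then stimulated with […] calcium ionophore A23187 for 20 min at 37° C; stopped on ice with EGTA. Plasma LTB4, TxB2 and PGE2 measured by RIA or ELISA as ng/10^6 neutrophils; effects expressed as percent change from control.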

carrageenan paw edema = assay: rat carrageenan paw edema assay (Example 78); type: in vivo, rat (male Sprague-Dawley)
Protocol: The compounds of the invention are further tested in the rat carrageenan paw edema assay to determine their ability to inhibit the acute inflammatory response.
This assay is carried out as follows: 140-180 g Male Sprague-Dawley rats, in groups of 6 animals are injected subcutaneously in the right paw with 0.1 mL of 1% carrageenan at zero time. Mercury plethysmographic readings (mL) of the paw are made at zero time and 3 hours later. Test compounds are suspended or dissolved in 0.5% methylcellulose and given perorally 1 hour prior to carrageenan administration.
The increase in paw volume (edema in mL) produced by the carrageenan is measured. Paw edema is calculated (3 hour volume minus zero time volume), and percent inhibition of edema is determined. Unpaired Student's t-test is used to determine statistical significance.

Kb [1]: 1000 nM
Structure (SMILES): Cc1c(CC(=O)O)c2cc(OCc3ccc4ccccc4n3)ccc2n1Cc1ccc(Cl)cc1 [Example 43, 1-[(4-Chlorophenyl)methyl]-2-methyl-5-(2-quinolinylmethoxy)-1H-indole-acetic acid tromethamine salt hemi-ethanolate]

Structure (SMILES): Cc1c(CC(=O)O)c2cc(OCc3ccc4ccccc4n3)ccc2n1Cc1ccc2ccccc2n1 [Example 18, 2-Methyl-5-(2-quinolinylmethoxy)-1,2-(quinolinylmethy)-1H-indole-3-acetic acid]
inhibition at 500 µM [2]: -31%
IC50 [3]: 27 µM
inhibition [3]: 30%
% Change in Edema ([4]; 30 mg/kg i.p., 30 min): -19%
Kb [1]: 1410 nM
inhibition (human platelet PLA2): 47%
inhibition at 500 µM [5]: 88%

Kb [1]: 550 nM
Structure (SMILES): CCC1(CC(=O)O)OCCc2c1[nH]c1ccc(OCc3ccc4ccccc4n3)cc21 (stereo not drawn) [Example 9, 1-Ethyl-1,3,4,9-tetrahydro-6-(quinolinylmethoxy)pyrano[3,4-b]indole-1-acetic acid]
inhibition at 10000 µM [2]: 75%
inhibition at 10000 µM [5]: 96%

inhibition [3]: 12%
IC50 ([6]; human whole blood, read-out: IC50 (inhibition of LTB4)): 19.9 µM
Kb [1]: 2510 nM
Structure (SMILES): CCN(CC)C(=O)Cc1c(C)n(Cc2ccccc2)c2ccc(OCc3nc4ccccc4s3)cc12 [Example 52, 5-(2-Benzothiazolylmethoxy)-N,N-diethyl-1-(phenylmethyl)-2-methyl-1H-indole-3-acetamide]
% Inhibition of LTB4 [6]: 68%

Structure (SMILES): CCc1cccc2c3c([nH]c12)C(CC)(CC(=O)O)OCC3 (stereo not drawn) [etodolac, reference compound]
inhibition at 500 µM [2]: 100%
ED50 (carrageenan paw edema; Rattus norvegicus, 3 h, oral, Table VIII): 23 mg/kg
inhibition at 500 µM [5]: 21%

Structure (SMILES): CC1(C)OCCc2c1[nH]c1ccc(OCc3ccc4ccccc4n3)cc21 [Example 14, 1,3,4,9-Tetrahydro-1,1-dimethyl-6-(2-quinolinylmethoxy)pyrano[3,4-b]indole]
inhibition at 10000 µM [2]: -48%
% Inhibition 50 mg/kg (peroral) (carrageenan paw edema; 50 mg/kg peroral, 3 hours after carrageenan): 27%
inhibition at 10000 µM [5]: 91%

inhibition [3]: 2%
Kb [1]: 3980 nM
Structure (SMILES): CCOC(=O)Cc1c(C)n(Cc2ccccc2)c2ccc(OCc3nc4ccccc4s3)cc12 [Example 50, 5-(2-Benzothiazolylmethoxy)-1-(phenylmethyl)-2-methyl-1H-indole-3-acetic acid ethyl ester]
% Inhibition of LTB4 [6]: 95%

Structure (SMILES): CCCCCCOc1ccc2c(c1)c(CC(=O)O)c(C)n2Cc1ccc(Cl)cc1 [Example 19, 1-[(4-Chlorophenyl)methyl]-5-(hexyloxy)-2-methyl-1H-indole-3-acetic acid]
inhibition [3]: 45%
% Change in Edema ([4]; 30 mg/kg i.p., 30 min): -30%
% Change in Edema ([4]; 60 mg/kg i.p., 30 min): -34%
inhibition (human platelet PLA2): 71%

Structure (SMILES): COc1ccc2c(c1)c(CC(=O)O)c(C)n2C(=O)c1ccc(Cl)cc1 [indomethacin, reference compound]
IC50 [3]: 145 µM
% Change in Edema ([4]; 10 mg/kg p.o., 10 min): -32%
% Change in Edema ([4]; 10 mg/kg p.o., 30 min): -31%
% Change in Edema ([4]; 10 mg/kg p.o., 60 min): -42%

Structure (SMILES): C[C@@H]1C[C@H]2[C@@H]3CCC4=CC(=O)C=C[C@]4(C)[C@@]3(F)[C@@H](O)C[C@]2(C)[C@@]1(O)C(=O)CO [Dexamethasone]
ED50 at +10 min. ([4]; p.o. 3 hr, at +10 min after PLA2): 10 mg/kg
